Assay results as given in patent US9937194B1, “Compounds and methods for treating inflammatory diseases” (priority 2009, dated 2018).

Assays:
[1] = test system: HDAC activity; assay: H2O2-induced reduction of HDAC activity in PMA-differentiated U937 cells; assay type: cell-based, human; details: PMA-differentiated U937
How it was run: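 U937 cells PMA-differentiated for 3 days, pretreated with compound for 20 min, then exposed to 200 μM H2O2 for 4 h with Fluor de Lys substrate present. Whole-cell HDAC activity measured fluorimetrically. Data expressed as fold change versus H2O2-only control, mean of four experiments ± SEM.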

[2] = test system: HDAC2 mRNA; assay: Cigarette smoke extract-induced reduction of HDAC2 mRNA in A549 cells; assay type: cell-based, human; details: A549; CSE
Description: Preparations of cigarette smoke extract. To prepare the cigarette smoke extract, two full-strength Marlboro cigarettes (filters removed; Phillip Morris USA, Richmond, Va.) are combusted through a modified 60-ml syringe apparatus, and the smoke passed through 20 ml of DMEM medium. Each cigarette generally yields five draws of the syringe (to the 60-ml mark), with each individual draw taking approximately 10 s to complete. Cigarette smoke extract is then passed through a 0.20-μm filter to sterilize and remove particulate matter and is used immediately unless otherwise stated.
Quantitative RT-PCR. Total RNA extraction and reverse transcription are performed using an RNeasy kit (QIAGEN, Crawley, UK) and a High-Capacity cDNA Reverse Transcription Kits (Applied Biosystems, Foster City, Calif.). Gene transcript level of HDAC2 (HS00231032_M1, Applied Biosystems, California, USA) and the house-keeping gene, guanine nucleotide binding protein beta polypeptide-2-like 1 (GNB2L1) (HS00272002_M1, Applied Biosystems) are quantified by real-time PCR using a TaqMan® Gene Expression Master Mix (Applied Biosystems) on a Rotor-Gene 6000 (Corbett Research, Cambridge, UK). Transcripts are analysed by the delta (D) CT method and variations in cDNA concentrations between different samples were corrected using GNB2L1.
Effects of macrolides on cigarette smoke extract-induced (CSE-induced) reduction of HDAC2 mRNA in A549 cells. Cells pretreated with compounds described herein for 30 min are exposed to CSE (0.15 O.D.) for 1 hr. The cells are washed twice and incubated with medium only for 4 hrs. Data are expressed as % reduction from baseline (left) or % increase from baseline under H2O2. Values represent means of three experiments±SEM. Example 33 reverses cigarette smoke extract-induced (CSE-induced) reduction of HDAC2 mRNA expression in A549 cells at concentrations of about 10 μM or greater, and with statistical significance of p<0.05 versus treatment with CSE only (one-way ANOVA with post hoc test, n=3) at doses of about 30 μM or greater.

[3] = test system: Akt; assay: H2O2-induced phosphorylation of Akt in PMA-differentiated U937 cells (western blot); assay type: cell-based, human; details: PMA-differentiated U937; H2O2 1 mM 30 min
How it was run: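 PMA-differentiated U937 macrophage-like cells pretreated with compound 20 min, then stimulated with 1 mM H2O2 for 30 min. pAkt measured by western blot densitometry, normalised to total protein and expressed as fold change versus H2O2-only control; mean ± SEM of 3–4 experiments.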

[4] = test system: IL-8; assay: LPS-induced IL-8 release in PMA-differentiated U937 cells (ELISA); assay type: cell-based, human; details: LPS 100 ng/ml 4 hrs
How it was run: (§1)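 PMA-differentiated U937 macrophage-like cells were pretreated with compound for 1 hr, then stimulated with LPS (100 ng/ml) for 4 hrs. Released IL-8 and TNFα were quantified by sandwich ELISA. Values are means of three experiments ± SEM.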

[5] = test system: TNFα; assay: LPS-induced TNFα release in PMA-differentiated U937 cells (ELISA); assay type: cell-based, human; details: LPS 100 ng/ml 4 hrs
How it was run: as §1

[6] = test system: U937 cells; assay: H2O2-induced steroid insensitivity in U937 cells (dexamethasone IC50 on TNFα-induced IL-8); assay type: cell-based, human; details: highest concentration tested (100 μM); H2O2 200 μM
Description: Cytokine ELISA. LPS-induced IL-8, TNFα concentrations and TNFα-induced IL-8 concentrations are determined by sandwich ELISA according to the manufacturer's instructions (R&D Systems Europe). IC50 values for dexamethasone on IL-8 production are calculated using the computer program Prism 4.0 (GraphPad Software Inc., San Diego, Calif.) as a marker for steroid sensitivity.
Restoration of steroid sensitivity. U937 cells: U937 are treated with oxidative stress (H2O2, 200 μM or 0.15 dilution CSM (cigarette smoke conditioned medium)) and 4 hours later, stimulated with TNFα (10 ng/ml) in the presence of dexamethasone (10^−11-10^−6M). Supernatant and cells are collected 24 hrs after stimulation and IL-8 is measured by conventional ELISA. As the index of corticosteroid sensitivity, IC50 of dexamethasone is calculated. Test compounds are treated 20 min before oxidative stress treatment.
Effects of compounds on H2O2-induced steroid insensitivity in U937 cells. Cells stimulated with H2O2 (200 μM) overnight are incubated with compounds described herein for 30 min under H2O2 (200 μM) exposure. The cells are treated with dexamethasone (10^−11 to 10^−6 M) for 20 min, followed by the TNFα stimulation overnight. TNFα-induced IL-8 release is evaluated by ELISA and IC50 values for dexamethasone on IL-8 production are calculated using Prism. Data are expressed as fold changes against positive control treated with H2O2 only. Values represent means of four experiments±SEM. H2O2 exposure reduces dexamethasone sensitivity by approximately 4 fold based on calculated IC50 values of TNFα-induced IL-8 production.

[7] = test system: A/J mice exposed to LPS; assay: Anti-inflammatory activity in vivo: A/J mice exposed to LPS intranasally; details: intranasal, 1 hr before LPS challenge
[8] = test system: U937 cells; details: H2O2-induced insensitivity on TNF-α-induced IL-8 production; cited from earlier work
[9] = test system: PBMCs from COPD patients; details: PBMCs obtained from COPD patients; cited from earlier work
[10] = test system: MMP9; details: macrophages in sputum of COPD patients; cited from earlier work
[11] = test system: HDAC2; details: reduced by oxidative stress; cited from earlier work

## CC[C@H]1OC(=O)[C@H](C)[C@@H](O[C@H]2C[C@@](C)(OC)[C@@H](O)[C@H](C)O2)[C@H](C)[C@@H](O[C@@H]2O[C@H](C)C[C@H](N(C)C)[C@H]2O)[C@](C)(O)C[C@@H](C)C(=O)[C@H](C)[C@@H](O)[C@]1(C)O [ERY, erythromycin]
[1]; H2O2 200 μM 4 hrs
  restoration of HDAC activity compared with Example 33: only at much higher doses than Example 33
[1]; H2O2 200 μM, comparators at highest doses tested
  HDAC activity reached compared with untreated controls: only restore HDAC activity to levels comparable to untreated controls
[2]
  reversal of HDAC mRNA expression reduction compared with Example 33: only at much higher doses than Example 33
[3]
  inhibition of Akt phosphorylation compared with Example 33: at comparable concentrations
[4]
  inhibition of LPS-induced IL-8 release compared with Example 33: did not show any inhibition at any concentration tested
[5]
  inhibition of LPS-induced TNFα release compared with Example 33: did not show any inhibition at any concentration tested
[6]
  restoration of dexamethasone sensitivity: None of ERY, CLR, or AZI restored dexamethasone sensitivity
[7]
  anti-inflammatory action in LPS-exposed A/J mice: have anti-inflammatory action
[8]
  restoration of corticosteroid sensitivity (reported): restore corticosteroid sensitivity
[9]
  restoration of corticosteroid sensitivity (reported): restore corticosteroid sensitivity
[10]
  MMP9 expression (reported): inhibited MMP9 expression
[11]
  HDAC2 promoter activity and protein expression (reported): restore HDAC2 promoter activity and protein expression
